# Entries after “also recorded” stand apart in the source; their conditions may differ. Like-named read-outs stand apart in the source and are kept apart here.
# What was measured:
# [1] = system: ALS patients; details: cited from earlier work
# [2] = system: ALS patients; assay: Serum protein carbonyl determination in ALS patients (2,4-dinitrophenylhydrazine method); assay type: in vivo, human; details: for serum protein carbonyl level under high-dose vitamin E: ALS patients (n=12) on high-dose vitamin E for 10.4±2.5 months before starting melatonin
# Excerpt: Protein carbonyl content of blood serum and other body fluids can be determined according to the 2,4-dinitrophenylhydrazine method described by Levine et al. (Levine Methods Enzymol 1990: 186: 464-478). The protein content can be measured according to Lowry et al. (Lowry J Biol Chem 1951: 193: 265-275) to enable a normalization of the protein carbonyl level. Other suitable methods and reagents known in the field to measure protein content and/or the content of protein carbonyls can also be used. Protein carbonyl measurements were performed in the serum of 19 consecutively admitted ALS patients (61.7±1.9 yr, 12 males, […] daily as suppositories at bedtime) and of ten healthy controls (61.2±2.0 years, five males, five females). Protein carbonyls were determined by a variant of the 2,4-dinitrophenylhydrazine method (Levine Methods Enzymol 1990: 186: 464-478). Serum was diluted 1:10 with ice-cold 5-mM pf potassium phosphate buffer, pH 7.5, containing leupeptin (0.5 μg/mL), aprotinin (0.5 μg/mL), and pepstatin A (0.7 μg/mL); 300 μL was used for a single determination. Deviations from the original procedure concerned elimination of the chromogen: protein pellets were washed three times with 1 mL of ethanol/ ethylacetate (1:1); particular attention was given to thorough resuspension (vortexing) and complete removal of the supernatant using Pasteur pipettes, and thereafter, stripes of blotting paper. Protein was measured according to Lowry et al. (Lowry J Biol Chem 1951: 193: 265-275).
# [3] = system: ALS; details: cited from earlier work; for clinical efficacy in ALS: clinical setting, literature
# [4] = system: ALS patients; assay: Clinical outcome (ALSFRS) of ALS patients with or without continuous high-dose vitamin E; assay type: in vivo, human; details: ALSFRS after 1 yr of melatonin treatment
# Excerpt: Remarkably, most of these patients (n=12) had already been on high-dose vitamin E, another antioxidant, for 10.4±2.5 months before starting the melatonin treatment.
# [5] = system: Alzheimer's disease (AD); details: in vivo; cited from earlier work
# [6] = system: ALS mouse model; details: high-dose oral melatonin; U.S. Pub. No. 2004/0192745; cited from earlier work
compound,measurement,setting,value
"Nc1nc2ccc(OC(F)(F)F)cc2s1 [RILUZOLE®, 2-amino-6-(trifluoromethoxxy)benzothiazole]",other important outcome measures,[1],lacked benefit
same,side effects,[1],"asthenia, nausea, anorexia, diarrhea, headache, and increase in liver transaminases; also recorded: enhances catabolism"
vitamin E,serum protein carbonyl level under high-dose vitamin E,[2],does not change the level of serum protein carbonyls
same,serum protein carbonyl level under high-dose vitamin E,[2]; listed as Vitamin E,does not decrease the serum protein carbonyl level
same,risk of developing ALS,"[3]; 10-yr prospective study with over 900,000 individuals, regular intake of vitamin E",decreased risk of developing ALS
same,clinical efficacy in ALS,[3],"did not reveal any beneficial effect; also recorded: none of the antioxidative compounds tested, including vitamin E, proved to be effective"
same,clinical efficacy in ALS,[3]; listed as Vitamin E,ineffective in ALS treatment
same,clinical outcome (ALSFRS),[4],did not reveal any beneficial effect
same,disease progression in AD,[5],slowing of disease progression
COc1ccc2[nH]cc(CCNC(C)=O)c2c1 [melatonin],serum protein carbonyl content after melatonin treatment,"[2]; ALS patients n=19, 300 mg melatonin daily as suppositories at bedtime, mean treatment time 4.68±0.22 months, versus matched healthy controls n=10",decrease to levels of matched healthy controls; also recorded: normalized to control values; also recorded: fully reverted to control levels; also recorded: normalizes the serum protein carbonyl level to control level
same,survival of ALS mouse model,[6],prolongation of survival; also recorded: exhibit efficacy

# Reference: patent US20080206881A1, “DIAGNOSTIC MARKER FOR NEURODEGENERATIVE DISEASES” (priority 2007, published 2008)
